According to patent publication US20180215734A1, “PYRIMIDINE DERIVATIVES AS KINASE INHIBITORS AND THEIR THERAPEUTICAL APPLICATIONS” (NantBioScience, Inc., priority 2016, published 2018):
Like-named read-outs stand apart in the source and are kept apart here.

Columns and labels:
[1] = tested on: SNU16; assay: Inhibition of proliferation (CellTiterblue, 72 hr), SNU16; type: cell-based
Experimental: (§1) A number of studies were performed to analyze the consequences of tyrosine kinase inhibition in cell lines. To do this, 1000 cells are seeded in 27 μl/well in 384-well microplates, which are then placed in a humidified CO2 incubator at 37° C. overnight. The next day, 3 μl/well of 10× concentrated drug is added and the plates are returned to the incubator for 72 hr. After 72 hr incubation, plates are removed and 6 μl/well CellTiterblue (Promega) viability reagent is added. Plates are returned to the incubator for 3 hrs, after which fluorescence measurements are read on the Victor X3 plate reader (Perkin Elmer). Data are analyzed using Excel (Microsoft), and GI50 values are determined using Prism (Graphpad).

[2] = target: KDR(h) (Homo sapiens, UniProt P35968); assay: Kinase assay, KDR(h); type: biochemical
Sequence of KDR(h) (P35968 20-1356): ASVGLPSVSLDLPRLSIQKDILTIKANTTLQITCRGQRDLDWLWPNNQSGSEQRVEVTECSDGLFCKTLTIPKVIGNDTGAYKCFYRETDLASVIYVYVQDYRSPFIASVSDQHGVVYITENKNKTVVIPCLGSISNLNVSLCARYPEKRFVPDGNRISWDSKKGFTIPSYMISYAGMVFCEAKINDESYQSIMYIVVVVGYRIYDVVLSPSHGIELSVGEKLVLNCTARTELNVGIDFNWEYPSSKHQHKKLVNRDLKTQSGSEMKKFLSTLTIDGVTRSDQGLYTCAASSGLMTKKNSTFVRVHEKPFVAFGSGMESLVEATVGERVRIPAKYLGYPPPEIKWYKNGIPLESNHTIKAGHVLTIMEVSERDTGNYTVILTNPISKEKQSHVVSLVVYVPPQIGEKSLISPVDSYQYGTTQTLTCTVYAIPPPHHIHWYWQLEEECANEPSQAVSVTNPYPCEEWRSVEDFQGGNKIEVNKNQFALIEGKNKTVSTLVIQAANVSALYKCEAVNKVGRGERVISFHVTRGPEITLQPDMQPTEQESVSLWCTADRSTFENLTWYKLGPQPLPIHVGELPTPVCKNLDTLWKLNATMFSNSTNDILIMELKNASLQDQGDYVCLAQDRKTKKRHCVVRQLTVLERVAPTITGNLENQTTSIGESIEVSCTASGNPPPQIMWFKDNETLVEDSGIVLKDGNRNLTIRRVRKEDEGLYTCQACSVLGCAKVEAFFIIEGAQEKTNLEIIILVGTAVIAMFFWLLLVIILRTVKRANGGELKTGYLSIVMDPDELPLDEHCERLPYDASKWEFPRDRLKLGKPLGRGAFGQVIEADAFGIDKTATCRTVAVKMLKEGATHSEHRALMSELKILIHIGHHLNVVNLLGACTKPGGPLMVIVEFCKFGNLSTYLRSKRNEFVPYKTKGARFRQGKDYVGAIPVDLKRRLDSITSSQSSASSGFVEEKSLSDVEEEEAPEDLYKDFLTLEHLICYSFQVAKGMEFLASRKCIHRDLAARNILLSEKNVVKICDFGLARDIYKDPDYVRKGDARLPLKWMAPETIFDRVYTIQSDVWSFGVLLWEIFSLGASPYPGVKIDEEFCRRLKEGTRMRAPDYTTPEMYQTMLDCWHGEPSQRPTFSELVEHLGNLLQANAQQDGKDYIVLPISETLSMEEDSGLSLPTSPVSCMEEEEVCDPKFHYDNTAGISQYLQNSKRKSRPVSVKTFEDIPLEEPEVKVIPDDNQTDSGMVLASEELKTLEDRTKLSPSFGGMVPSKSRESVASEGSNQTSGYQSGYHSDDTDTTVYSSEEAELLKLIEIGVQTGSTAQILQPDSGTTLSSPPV
Experimental: (§2) Kinase assay protocols well known to those of ordinary skill in the art were used. Specifically, the buffer composition was as follows: 20 mM MOPS, 1 mM EDTA, 0.01% Brij-35, 5% Glycerol, 0.1% β-mercaptoethanol, 1 mg/mL BSA. Test compounds were initially dissolved in DMSO at the desired concentration, then serially diluted to the kinase assay buffer. In a final reaction volume of 25 μL FGFR1(h) (5-10 mU) and KDR(h) (5-10 mU) are incubated with 8 mM MOPS pH 7.0, 0.2 mM EDTA, 200 μM LRRASLG (Kemptide), 10 mM magnesium acetate and [γ^33P-ATP]. The reaction was initiated by the addition of the MgATP mix. After incubation for 40 minutes at room temperature, the reaction was stopped by addition of 5 μL of a 3% phosphoric acid solution. Ten L of the reaction was then spotted onto a P30 filter mat and washed three times for 5 minutes in 50 mM phosphoric acid and once in methanol prior to drying and scintillation counting. Wells containing substrate but no kinase and wells containing a phosphopeptide control were used to set 0% and 100% phosphorylation value, respectively.
(§3) Of all of the steps in developing a drug, the hardest is finding promising compounds. (See, e.g., Malo et al., “Statistical practice in high-throughput screening data analysis,” Nature Biotechnology, 2006, 24, 167-75.) Kinase inhibitors often also have an anti-proliferative effect. […] The kinase inhibitory activity Compound 19 was tested using the kinase assay described in Example 3. […] These mutations in the tested kinases are thought to play an important role in transformation of some cancers.

[3] = tested on: KG1a; assay: Inhibition of proliferation (CellTiterblue, 72 hr), KG1a; type: cell-based, human; settings: 72 hr
Experimental: as §1

[4] = target: FGFR1(h) (Homo sapiens, UniProt P11362); assay: Kinase assay, FGFR1(h); type: biochemical; settings: 1 μM
Sequence of FGFR1(h) (P11362 22-822): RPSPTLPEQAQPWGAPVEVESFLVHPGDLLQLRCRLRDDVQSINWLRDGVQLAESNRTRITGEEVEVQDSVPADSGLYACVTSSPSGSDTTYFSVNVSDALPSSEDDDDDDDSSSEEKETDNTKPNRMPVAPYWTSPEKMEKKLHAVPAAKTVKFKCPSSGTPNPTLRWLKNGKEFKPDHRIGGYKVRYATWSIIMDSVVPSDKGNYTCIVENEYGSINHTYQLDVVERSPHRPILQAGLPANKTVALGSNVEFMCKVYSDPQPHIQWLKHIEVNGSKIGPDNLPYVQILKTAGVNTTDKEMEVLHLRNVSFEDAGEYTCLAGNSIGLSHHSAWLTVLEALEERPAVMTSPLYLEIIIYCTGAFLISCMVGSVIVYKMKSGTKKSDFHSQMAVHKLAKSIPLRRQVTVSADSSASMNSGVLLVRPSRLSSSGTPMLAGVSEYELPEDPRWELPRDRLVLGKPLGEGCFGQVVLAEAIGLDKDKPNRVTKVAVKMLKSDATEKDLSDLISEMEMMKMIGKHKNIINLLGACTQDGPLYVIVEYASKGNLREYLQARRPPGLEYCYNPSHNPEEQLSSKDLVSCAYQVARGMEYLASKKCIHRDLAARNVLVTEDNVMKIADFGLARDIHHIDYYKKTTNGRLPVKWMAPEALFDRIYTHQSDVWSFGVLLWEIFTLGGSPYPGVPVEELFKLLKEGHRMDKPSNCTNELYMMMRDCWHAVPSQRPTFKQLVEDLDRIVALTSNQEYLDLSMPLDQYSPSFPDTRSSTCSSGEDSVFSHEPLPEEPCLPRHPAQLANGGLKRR
Experimental: as §2, §3

[5] = tested on: TG1a Human AML Xenograft; assay: Antitumor efficacy on TG1a human AML xenograft; type: in vivo, mouse; settings: 20 mg/kg, Qdx10, IP
Experimental: In this Example the antitumor activity of compounds 14, 17, 19, 45, and 48 of the current invention are tested using an art-recognized xenograft model of AML. (“T/C” refers to the ratio of the tumor's size in treated animals versus the tumor size in control untreated animals. “BWC” refers to “body weight change”).

[6] = tested on: Kato III; assay: Inhibition of proliferation (CellTiterblue, 72 hr), Kato III; type: cell-based
Experimental: as §1

[7] = tested on: RT112; assay: Inhibition of proliferation (CellTiterblue, 72 hr), RT112; type: cell-based
Experimental: as §1

[8] = Metabolic stability, mouse liver microsomes; type: in vitro ADME
[9] = Metabolic stability, rat liver microsomes; type: in vitro ADME
[10] = Metabolic stability, human liver microsomes; type: in vitro ADME

Structure (SMILES) | GI50 ([1]; Homo sapiens, SNU-16, 72 h) | inhibition at 1 µM [2] | inhibition at 1 µM [4] | GI50 ([3]; Homo sapiens, KG-1a) | GI50 ([6]; Homo sapiens, KATO III, 72 h) | GI50 ([7]; Homo sapiens, RT-112, 72 h) | further results
Cc1cc2c(F)c(Oc3ncnc(Nc4ccc(N5CCNCC5)cc4)c3C#N)cc(F)c2[nH]1 [Compound 14] | 23 nM | 93% | 99% | 1.6 nM | 137 nM | 76 nM | BWC (%) [5]: −4.0%; T/C (%) (day14) [5]: −60.6%
Cc1cc2c(F)c(Oc3ncnc(Nc4ccc(N5C[C@@H](C)N[C@@H](C)C5)cc4)c3C#N)ccc2[nH]1 [Compound 17] | 20 nM | 96% | 100% | 0.74 nM | 113 nM | 83 nM | BWC (%) [5]: −5.7%; T/C (%) (day14) [5]: −79.5%
Cc1cc2c(F)c(Oc3ncnc(Nc4ccc(N5CCN(CCO)CC5)cc4)c3C#N)cc(F)c2[nH]1 [Compound 31] | 32 nM | 95% | 102% | 0.35 nM | 205 nM | 171 nM | 
Cc1cc2c(F)c(Oc3ncnc(Nc4ccc(N5CCN[C@@H](C)C5)cc4)c3C#N)cc(F)c2[nH]1 [Compound 33] | 12 nM | 89% | 101% | 0.28 nM | 88 nM |  | GI50 [7]: 126 nM
Cc1cc2c(F)c(Oc3ncnc(Nc4ccc(N5CCN[C@@H](C)C5)cc4)c3C#N)cc(F)c2[nH]1 [Compound 34] |  |  |  |  |  |  | GI50 [1]: 22 nM; % Inhibition at 1 μM KDR(h) ([2]; 1 μM): 89%; GI50 [3]: 0.28 nM; % Inhibition at 1 μM FGFR1(h) [4]: 100%; GI50 [6]: 98 nM; GI50 [7]: 52 nM
Cc1cc2c(F)c(Oc3ncnc(Nc4ccc(N5C[C@@H](C)N(C)[C@@H](C)C5)cc4)c3C#N)cc(F)c2[nH]1 [Compound 45] | 15 nM | 73% | 101% | 0.43 nM | 79 nM | 37 nM | BWC (%) [5]: −11.7%; T/C (%) (day14) [5]: 4.9%
Cc1cc2c(F)c(Oc3ncnc(Nc4ccc(N5CCN(C)C(C)C5)cc4)c3C#N)cc(F)c2[nH]1 (stereo not drawn) [Compound 46] | 22 nM | 90% | 101% | 1.37 nM | 111 nM | 48 nM | 
CCN1[C@H](C)CN(c2ccc(Nc3ncnc(Oc4cc(F)c5[nH]c(C)cc5c4F)c3C#N)cc2)C[C@@H]1C [Compound 47] | 22 nM | 74% | 101% | 0.5 nM | 123 nM | 48 nM | 
CCN1CCN(c2ccc(Nc3ncnc(Oc4cc(F)c5[nH]c(C)cc5c4F)c3C#N)cc2)CC1C (stereo not drawn) [Compound 48] | 35 nM | 84% | 100% | 0.55 nM | 152 nM | 57 nM | BWC (%) [5]: −3.8%; T/C (%) (day14) [5]: −72.8%
Cc1cc2c(F)c(Oc3ncnc(Nc4ccc(N5[C@H](C)CNC[C@@H]5C)cc4)c3C#N)cc(F)c2[nH]1 [Compound 49] | 24 nM | 82% | 101% | 0.6 nM | 86 nM | 48 nM | 
Cc1cc2c(F)c(Oc3ncnc(Nc4ccc(N5CCN6CCCC6C5)cc4)c3C#N)cc(F)c2[nH]1 (stereo not drawn) [Compound 50] | 52 nM | 88% | 101% | 2.91 nM | 174 nM | 49 nM | 
Cc1nc(Nc2ncc(C(=O)Nc3c(C)cccc3Cl)s2)cc(N2CCN(CCO)CC2)n1 [DASATINIB, dasatinib, reference compound] |  |  |  |  |  |  | half-life [8]: 9.2 min; half-life [9]: 11.9 min; half-life [10]: 7.5 min

Continued, in another order:

GI50 ([1]; Homo sapiens, SNU-16, 72 h) | inhibition at 1 µM [2] | inhibition at 1 µM [4] | Structure (SMILES) | GI50 ([3]; Homo sapiens, KG-1a) | GI50 ([6]; Homo sapiens, KATO III, 72 h) | GI50 ([7]; Homo sapiens, RT-112, 72 h) | further results
66 nM | 80% | 101% | Cc1cc2c(F)c(Oc3ncnc(Nc4ccc(N5CCN6CCCCC6C5)cc4)c3C#N)cc(F)c2[nH]1 (stereo not drawn) [Compound 51] | 1.62 nM | 208 nM | 73 nM | 
28 nM | 93% | 100% | C=CC(=O)Nc1cccc(Nc2ncnc(Oc3cc(F)c4[nH]c(C)cc4c3F)c2C#N)c1 [Compound 53] | 3.59 nM | 152 nM | 94 nM | 
24 nM | 94% | 101% | C=CC(=O)Nc1ccc(Nc2ncnc(Oc3cc(F)c4[nH]c(C)cc4c3F)c2C#N)cc1 [Compound 56] | 5.59 nM | 106 nM | 134 nM | 
6 nM |  |  | CCC(=O)Nc1ccc(Nc2ncnc(Oc3cc(F)c4[nH]c(C)cc4c3F)c2C#N)cc1 [Compound 57] | 15 nM |  |  | 
122 nM |  |  | Cc1cc2c(F)c(Oc3ncnc(Nc4ccc(NC(=O)CN5CCOCC5)cc4)c3C#N)cc(F)c2[nH]1 [Compound 58] | 101 nM |  |  | 
79 nM |  |  | Cc1cc2c(F)c(Oc3ncnc(Nc4ccc(NC(=O)CN5CCN(C)CC5)cc4)c3C#N)cc(F)c2[nH]1 [Compound 59] | 31 nM |  |  | 
92 nM |  |  | C/C=C/C(=O)Nc1ccc(Nc2ncnc(Oc3cc(F)c4[nH]c(C)cc4c3F)c2C#N)cc1 [Compound 60] | 101 nM |  |  | 
75 nM |  |  | Cc1cc2c(F)c(Oc3ncnc(Nc4ccc(N5C[C@@H](C)N[C@@H](C)C5)nc4)c3C#N)cc(F)c2[nH]1 [Compound 61] | 4 nM |  |  | 
